Data: patent US5846742A, “Selecting substances for treating glucocorticoid-mediated inflammation or immune diseases using Tripterygium wilfordii Hook F extracts” (Board of Regents, The University of Texas System, priority 1997, dated 1998)

Columns and labels:
[1] = tested on: PGE2 production by human monocytes (COX-2); test: Endotoxin induced PGE2 production by monocytes (COX-2); type: cell-based; settings: LPS 10 μg/ml, 18 hours, FIG. 29
Procedure: After 18 hours of incubation, cell-free supernatants were collected and assayed for PGE2 content with a radioimmunoassay kit (Amersham), as described by the manufacturer. Data represent the mean of two replicate determinations of two separate experiments. […] Human monocytes produce prostaglandinE2 (PGE2) when stimulated with bacterial endotoxin.

B cells = test: SA-induced B cell DNA synthesis / Ig production, triptolide; type: cell-based, human; settings: for SA-induced B cell DNA synthesis (3H-thymidine incorporation): control 7,900
Source text: Other components of Tripterygium wilfordii Hook F include: […]

Fibroblasts = type: cell-based, human; settings: triptolide 10 ng/ml
Procedure: The cells were assayed for cell viability by using a cytoflowmeter (FACSCAN) after the cells were stained with propidium iodine.

T cells [2] = test: PHA-induced T cell proliferation, wilforonide (924); type: cell-based, human; settings: at the level of ngs
Source text: The molecular groups responsible for the immune suppressive function of these compounds are unknown, however, the core structure of diterpenoids which may be related to their activity consists of an α-β-unsaturated 5 element lactone which can be identified by Kedde reagents. HPLC was used to fractionate the ethyl acetate extract of TwHF and the Kedde reagents were employed to trace the fractions. Then, the effect of selected fractions on the in vitro IL-2 production and [^3 H]-thymidine incorporation by PHA-activated T cells was determined. Fractions that inhibit these T cell functions were selected and the chromatographic pattern was identified with HPLC. One fraction was further purified with HPLC and crystallized repeatedly; a pure, crystallized compound was obtained and designated "924".
[^3 H]-thymidine was added for the last 14 hours of culture. Each concentration was run in quadruplicate (4 times) and the results for each concentration averaged to provide a mean. The mean cpm×10^3 values were combined and expressed as a percent of T cell inhibition.
or absence of the indicated concentrations of wilforonide for 3 days.
[^3 H]-Thymidine was added for the last 14 hours. Data are from 4
independent experiments.

[3] = tested on: human GR (COS-7 cells, MMTV-luciferase); test: GR mediated MMTV-luciferase gene activation; type: cell-based; settings: for GR-mediated target gene activation: purified TwHF compounds
Procedure: Cell transfections and assays of GR mediated gene activation. COS-7 cells were maintained in culture in DMEM-10% bovine calf serum. […] Cells were plated at 10^6 cells per 10 cm plate. Twenty-four hours later, the cells were transfected with 500 ng pRShGrα, a GR expression vector (obtained from the Salk Institute, La Jolla, Calif.) and 10 μg of pMMTV-luciferase, a synthetic reporter gene. However, other expression vectors and synthetic reporter genes available to those of skill in the art may be used for transfection. The vector pMMTV-luciferase contains the luciferase gene under regulatory control of glucocorticoid-inducible elements in the MMTV-long terminal repeat. Cells were transfected using the calcium-phosphate precipitation technique (mammalian transfection kit, Stratagene, La Jolla, Calif.). […] Twenty-four hours later, the cells were washed, harvested, and lysates prepared by three cycles of freeze/thawing. The lysates were cleared by centrifugation at 12,000×g for 5 minutes; aliquots were assayed for protein content and equal amounts of proteins were used for luciferase assays.
COS-7 cells were transfected with a human GR expression vector and the MMTV-luciferase reporter gene construct. A parallel set of plates was transfected with the constitutively active RSV-luciferase construct. […] Cells were lysed after 24 hours and assayed for luciferase activity.

T cells [4] = test: PHA-induced T cell DNA synthesis, triptolide; type: cell-based, human; settings: for PHA-induced T cell DNA synthesis (3H-thymidine incorporation): control 93,400
lymph cells = settings: concanavalin A; cited from earlier work
mouse spleen cells = settings: high concentrations; cited from earlier work
IDH4 cells = type: cell-based, human; settings: 72 hours, FIG. 25
Procedure: IDH4 cells, that express endogenous glucocorticoid receptors, were produced by transfecting human fibroblasts with a plasmid containing the MMTV-long terminal repeat driving the SV40 large T antigen. Since extended growth of these cells is dependent on expression of the large T antigen, these cells require exogenous glucocorticoid to maintain proliferation.
[^3 H]-Thymidine was present for the last 16 h. Data represent the mean k inhibition of [^3 H]-thymidine incorporation of three replicate determinations of three separate experiments.

SMILES | Endotoxin induced PGE2 production / COX-2 induction [1] | Immunosuppressive action (T cells [2]) | GR-mediated target gene activation [3] | Lymph cell proliferation (lymph cells) | Dexamethasone dependent growth of IDH4 cells (IDH4 cells) | other results
CC#C[C@]1(O)CC[C@H]2[C@@H]3CCC4=CC(=O)CCC4=C3[C@@H](c3ccc(N(C)C)cc3)C[C@@]21C [RU486, reference compound] | inhibits endotoxin-induced PGE2 production by human peripheral blood monocytes, however, it is not as effective as the TwHF extract at lower concentrations | – | – | – | – | –
CC(C)[C@]12O[C@H]1[C@@H]1O[C@]13[C@]1(O[C@H]1C[C@H]1C4=C(CC[C@@]13C)C(=O)OC4)[C@@H]2O [Triptolide, triptolide] | – | potent immunosuppressive action | inhibited target gene activation by GR | inhibit the proliferation of lymph cells induced by concanavalin A | – | SA-induced B cell DNA synthesis (3H-thymidine incorporation) (B cells; 0.1 ng/ml): 2,000 CPM; SA-induced B cell DNA synthesis (3H-thymidine incorporation) (B cells; 1.0 ng/ml): 100 CPM; B lymphocyte proliferation (B cells; 0.1-1.0 ng/ml): inhibited proliferation of both T and B lymphocytes profoundly; Immunoglobulin production, mitogen stimulated B lymphocytes (B cells; in vitro): inhibited the in vitro production of immunoglobulin from mitogen stimulated human B lymphocytes at comparably small concentrations; Toxicity to fibroblasts (Fibroblasts): toxic to fibroblasts; PHA-induced T cell DNA synthesis (3H-thymidine incorporation) (T cells [4]; 0.1 ng/ml): 24,200 CPM; PHA-induced T cell DNA synthesis (3H-thymidine incorporation) (T cells [4]; 1.0 ng/ml): 100 CPM; T lymphocyte proliferation (T cells [4]; 0.1-1.0 ng/ml): inhibited proliferation of both T and B lymphocytes profoundly; Lymphocyte proliferation and IL-2 production (mouse spleen cells): suppress B and T lymphocyte proliferation and interleukin-2 production by mouse spleen cells
CC(C)[C@]12O[C@H]1[C@@H]1O[C@@]13[C@@]1(C)CCC4=C(COC4=O)[C@@H]1C[C@@H]1O[C@@]13C2=O [Triptonide, triptonide, reference compound] | – | – | – | inhibit the proliferation of lymph cells induced by concanavalin A | – | –
CC(C)c1ccc2c(c1O)CC[C@H]1C3=C(CC[C@]21C)C(=O)OC3 [Triptophenolide, triptophenolide] | – | – | far less potent | – | less active and its activity was not generally correlated with dosage | Immunosuppressive activity relative to triptolide or tripdiolide [3]: much less immunosuppressive than triptolide or tripdiolide
CC(C)[C@]12O[C@H]1[C@@H]1O[C@]13[C@]1(O[C@H]1C[C@H]1C4=C(C(=O)OC4)[C@@H](O)C[C@@]13C)[C@@H]2O [Tripdiolide, tripdiolide] | inhibited by the extract of TwHF and its purified immunosuppressive component, tripdiolide | potent immunosuppressive action | inhibited target gene activation by GR | – | inhibited dexamethasone dependent growth of IDH4 cells in a concentration dependent manner | –
